Like-named read-outs stand apart in the source and are kept apart here.

The target of the experiment is 11β-hsd-1 enzyme (Homo sapiens, UniProt P28845). The experiment is described as follows: 11β-hsd-1 enzyme assay, percentage of inhibition (3H-cortisone to cortisol, radio-HPLC). It counts as biochemical. The following applies: read-out: % inh @ 0.1 uM.
Sequence of 11β-hsd-1 enzyme (P28845 whole entry, species assumed): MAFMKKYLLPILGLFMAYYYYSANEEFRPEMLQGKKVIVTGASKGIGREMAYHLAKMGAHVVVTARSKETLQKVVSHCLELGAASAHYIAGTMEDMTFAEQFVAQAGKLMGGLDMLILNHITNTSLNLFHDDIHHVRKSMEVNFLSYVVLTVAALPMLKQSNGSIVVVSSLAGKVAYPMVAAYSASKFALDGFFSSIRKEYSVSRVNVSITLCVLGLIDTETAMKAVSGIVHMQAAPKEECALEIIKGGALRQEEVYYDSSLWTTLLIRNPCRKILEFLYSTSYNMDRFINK

On to `COc1cccc(NS(=O)(=O)c2ccc(-c3ccc(C#N)cc3)cc2)n1` [Example 78], for which, for the setting “0.1 uM”, the inhibition at 0.1 µM is 8.2%. Regarding `Cc1cccc(NS(=O)(=O)c2ccc(-c3cccc(COc4ccccc4)c3)cc2)n1` [Example 155], the inhibition at 0.1 µM (0.1 uM) was determined as 83.3%. Still for that read-out and setting: next, `Cc1cccc(-c2ccc(S(=O)(=O)Nc3cccc(C)n3)c(C)c2)c1` [Example 189]: 88%. As to `Cc1cccc(NS(=O)(=O)Cc2cccc(Cl)c2)n1` [Example 67], the inhibition at 0.1 µM (0.1 uM) was 49.6%. Regarding `COc1ccc(-c2ccc(S(=O)(=O)Nc3cccc(C)n3)cc2C)cc1C` [Example 243], the inhibition at 0.1 µM (compound at 0.1 uM) amounted to 70%. Same read-out and setting: to `COc1ccc(C(C)C)cc1-c1ccc(S(=O)(=O)Nc2cccc(C)n2)cc1C` [Example 239] belongs 65%.

For the compound `N#Cc1ccc(-c2ccc(S(=O)(=O)Nc3ccccn3)cc2)cc1` [Example 82], the inhibition at 0.1 µM (0.1 uM) is 53.4%. With `COc1cc(-c2ccc(C#N)cc2)ccc1S(=O)(=O)Nc1cccc(C)n1` [Example 276, 4′-Cyano-3-methoxy-biphenyl-4-sulfonic acid (6-methyl-pyridin-2-yl)-amide], the inhibition at 0.1 µM (compound at 0.1 uM) came out at 60.1%. As for `CCOc1cccc(-c2ccc(S(=O)(=O)Nc3cccc(C)n3)cc2)c1` [Example 121], the inhibition at 0.1 µM (0.1 uM) amounted to 61.4%. `Cc1cccc(NS(=O)(=O)c2ccc(-c3cn(C)cn3)cc2)n1` [Example 260]: the inhibition at 0.1 µM (compound at 0.1 uM) amounted to 14.8%.

`Cc1c(Cl)cccc1S(=O)(=O)Nc1cccc(CC(=O)N2CCN(Cc3ccccc3)CC2)n1` [Example 12]: the inhibition at 0.1 µM is 21.5%. For the compound `C=CCN(C)C(=O)Cc1cccc(NS(=O)(=O)c2cccc(Cl)c2C)n1` [Example 16], the inhibition at 0.1 µM (0.1 uM) was 10.9%. Take `Cc1cccc(NS(=O)(=O)c2ccc(-c3ccccc3F)c(C)c2)n1` [Example 230]: where the note is “compound at 0.1 uM”, the inhibition at 0.1 µM amounted to 23%.

On to `COc1c(C)cc(-c2ccc(S(=O)(=O)Nc3cccc(C)n3)cc2)cc1C` [Example 156], for which, where the note is “0.1 uM”, the inhibition at 0.1 µM amounted to 65.6%. On the same count and under the same terms, next, `Cc1cccc(NS(=O)(=O)c2sc(C)nc2C)n1` [Example 98]: 8.9%. Regarding `Cc1cccc(NS(=O)(=O)c2ccc(-c3cnco3)cc2)n1` [Example 264, N-(6-Methyl-pyridin-2-yl)-4-oxazol-5-yl-benzenesulfonamide], the inhibition at 0.1 µM (compound at 0.1 uM) is 39.7%. Regarding `Cc1cccc(NS(=O)(=O)c2ccc(-c3ccc(Cl)c(Cl)c3)cc2)n1` [Example 140], for the setting “0.1 uM”, the inhibition at 0.1 µM was 91%.

As for `Cc1cccc(NS(=O)(=O)c2ccc(Oc3ccccc3)cc2)n1` [Example 47], the inhibition at 0.1 µM (0.1 uM) is 21%. Take `Cc1cccc(NS(=O)(=O)c2ccc(-c3ncccn3)nc2)n1` [Example 261]: the inhibition at 0.1 µM (compound at 0.1 uM) came to 2.6%.

As to `Cc1cccc(NS(=O)(=O)c2ccc(C#N)cc2)n1` [Example 90], where the note is “0.1 uM”, the inhibition at 0.1 µM was 24.8%. Still for that read-out and setting: to `Cc1c(Cl)cccc1S(=O)(=O)Nc1cccc(CO)n1` [Example 116] belongs 37.2%. `Cc1cccc(NS(=O)(=O)N2CCC(C#N)(c3ccccc3)CC2)n1` [Example 305]: the inhibition at 0.1 µM (compound at 0.1 uM) is 1.1%. Take `CCOc1ccccc1-c1ccc(S(=O)(=O)Nc2cccc(C)n2)c(C)c1` [Example 188]: the inhibition at 0.1 µM (0.1 uM) was found to be 53%. Consider `Cc1cccc(NS(=O)(=O)c2ccc(-c3cccc(Cl)c3Cl)c(C)c2)n1` [Example 237], for which the inhibition at 0.1 µM (compound at 0.1 uM) was 58%. `CCc1cccc(NS(=O)(=O)c2ccc(C(C)C)cc2)n1` [Example 76]: the inhibition at 0.1 µM (0.1 uM) worked out at 15.6%. With `Cc1cccc(NS(=O)(=O)N2CC(Oc3ccc(F)cc3)C2)n1` [Example 313], the inhibition at 0.1 µM (compound at 0.1 uM) stood at 27.2%. In the case of `Cc1cccc(NS(=O)(=O)c2ccc(-c3ccc(C(N)=O)cc3)cc2)n1` [Example 262, 4′-(6-Methyl-pyridin-2-ylsulfamoyl)-biphenyl-4-carboxylic acid amide], the inhibition at 0.1 µM (compound at 0.1 uM) is 45.7%. Take `Cc1cccc(N(CCN(C)C)S(=O)(=O)c2ccc(-c3ccc(C#N)cc3)cc2)n1` [Example 265, 4′-Cyano-biphenyl-4-sulfonic acid (2-dimethylamino-ethyl)-(6-methyl-pyridin-2-yl)-amide]: the inhibition at 0.1 µM (compound at 0.1 uM) was 11.4%. `Cc1c(Cl)cccc1S(=O)(=O)Nc1cccc(CC(=O)O)n1` [Example 26, [6-(3-Chloro-2-methyl-benzenesulfonylamino)-pyridin-2-yl]-acetic acid]: for the setting “0.1 uM”, the inhibition at 0.1 µM was found to be 25.2%.

As to `Cc1cccc(NS(=O)(=O)c2ccc(-c3ccc(F)c(F)c3)c(C)c2)n1` [Example 244], the inhibition at 0.1 µM (compound at 0.1 uM) stood at 86%. As for `Cc1cccc(NS(=O)(=O)c2ccc(-c3ccc(OCc4ccccc4)cc3)cc2)n1` [Example 159], the inhibition at 0.1 µM (0.1 uM) turned out to be 90.4%. Still for that read-out and setting: to `Cc1cccc(NS(=O)(=O)c2ccc(-c3ccc(S(C)(=O)=O)cc3)cc2)n1` [Example 158] belongs 71%. For `Cc1cccc(NS(=O)(=O)N2CCC(c3ccccc3)(c3ccccc3)CC2)n1` [Example 307], the inhibition at 0.1 µM (compound at 0.1 uM) turned out to be 29.5%. As to `N#Cc1ccc(-c2ccc(S(=O)(=O)Nc3cc(O)c4ccccc4n3)cc2)cc1` [Example 105], the inhibition at 0.1 µM (0.1 uM) is 16.9%. As to `COc1ccc(-c2ccc(S(=O)(=O)Nc3cccc(C)n3)cc2C)cc1F` [Example 231], for the setting “compound at 0.1 uM”, the inhibition at 0.1 µM came out at 63%. For `Cc1c(Cl)cccc1S(=O)(=O)Nc1cccc(CC(=O)N(C)C(C)C)n1` [Example 30], the inhibition at 0.1 µM (0.1 uM) is 15.9%. The same measure, in the same setting: next, `Cc1cccc(NS(=O)(=O)c2ccc(-c3cc(F)cc(F)c3)cc2)n1` [Example 145]: 80.6%.

As for `Cc1cccc(NS(=O)(=O)c2ccc(-c3ccc4ccccc4c3)cc2)n1` [Example 137], the inhibition at 0.1 µM (0.1 uM) was 79%. `Cc1cccc(NS(=O)(=O)c2ccc(-c3cccc(C#N)c3)c(C)c2)n1` [Example 220]: the inhibition at 0.1 µM (compound at 0.1 uM) is 67%.

On to `Cc1cccc(NS(=O)(=O)c2ccc(-c3ccc(O)cc3)cc2C)n1` [Example 199], for which, under “compound at 0.1 uM”, the inhibition at 0.1 µM was 55%. Turning to `Cc1cccc(N(C)S(=O)(=O)c2ccc(-c3ccc(C#N)cc3)cc2)n1` [Example 110, 4′-Cyano-biphenyl-4-sulfonic acid methyl-(6-methyl-pyridin-2-yl)-amide], the inhibition at 0.1 µM (0.1 uM) worked out at 8.1%. On to `Cc1cc(C)nc(NS(=O)(=O)c2cccc(Cl)c2C)n1` [Example 58], for which, for the setting “0.1 uM”, the inhibition at 0.1 µM came out at 4%. As for `CCN(CC)C(=O)Cc1cccc(NS(=O)(=O)c2ccc(C)cc2)n1` [Example 23], the inhibition at 0.1 µM (0.1 uM) is 4.9%. Turning to `Cc1cccc(NS(=O)(=O)c2ccc(-c3ccccc3C)c(C)c2)n1` [Example 218], the inhibition at 0.1 µM (compound at 0.1 uM) turned out to be 56%.

On to `Cc1cc(C)c2ccc(NS(=O)(=O)c3ccc(-c4ccc(C#N)cc4)cc3)nc2n1` [Example 106], for which the inhibition at 0.1 µM (0.1 uM) stood at 5.4%. Same read-out and setting: next, `Cc1c(Cl)cccc1S(=O)(=O)Nc1cccc(CCO)n1` [Example 114, 3-Chloro-N-[6-(2-hydroxy-ethyl)-pyridin-2-yl]-2-methyl-benzenesulfonamide]: 11.3%; `Cc1ccnc(NS(=O)(=O)c2ccc(-c3ccccc3)cc2)n1` [Example 59]: 3.8%. On to `Cc1c(Cl)cccc1S(=O)(=O)Nc1cccc(CC(=O)N(CCC#N)C2CC2)n1` [Example 29], for which the inhibition at 0.1 µM (0.1 uM) stood at 10.9%. Still for that read-out and setting: next, `COC(=O)c1cccc(NS(=O)(=O)c2cccc(Cl)c2C)n1` [Example 4]: 23.9%. Turning to `Cc1cccc(NS(=O)(=O)c2cccc(C(F)(F)F)c2)n1` [Example 50], the inhibition at 0.1 µM (0.1 uM) was determined as 10.1%. Take `Cc1c(S(=O)(=O)Nc2cccc(CN(C)C)n2)sc2ccc(Cl)cc12` [Example 84]: the inhibition at 0.1 µM (0.1 uM) was determined as 26.4%. Regarding `Cc1cccc(NS(=O)(=O)c2ccc(-c3ccc(CO)cc3)cc2)n1` [Example 146], under “0.1 uM”, the inhibition at 0.1 µM was 46.5%. On to `Cc1c(Cl)cccc1S(=O)(=O)Nc1cccc(CC(=O)N2CCOCC2)n1` [Example 8, 3-Chloro-2-methyl-N-[6-(2-morpholin-4-yl-2-oxo-ethyl)-pyridin-2-yl]-benzenesulfonamide], for which the inhibition at 0.1 µM (0.1 uM) was found to be 5.52%. For the compound `Cc1cccc(NS(=O)(=O)c2ccc(-n3cccn3)cc2)n1` [Example 92], the inhibition at 0.1 µM (0.1 uM) is 29.8%. Regarding `Cc1nnc2n1CCN(S(=O)(=O)Nc1ccc3ccccc3n1)CC2` [Example 312], the inhibition at 0.1 µM (compound at 0.1 uM) came out at 6.9%. Still for that read-out and setting: next, `CCCCc1ccc(-c2ccc(S(=O)(=O)Nc3cccc(C)n3)cc2C)cc1` [Example 246]: 65%.

On to `Cc1cccc(NS(=O)(=O)c2ccccc2C(F)(F)F)n1` [Example 54], for which the inhibition at 0.1 µM (0.1 uM) amounted to 1%.

Regarding `COc1ccc(-c2ccc(S(=O)(=O)Nc3cccc(C)n3)cc2)c(OC)c1` [Example 135], for the setting “0.1 uM”, the inhibition at 0.1 µM was found to be 49.1%. Turning to `Cc1cccc(NS(=O)(=O)N2Cc3ccccc3C2)n1` [Example 298], the inhibition at 0.1 µM (compound at 0.1 uM) was determined as 13.3%. As to `Cc1nc(NS(=O)(=O)c2ccc(-c3ccc(C#N)cc3)cc2)ccc1C#N` [Example 101], the inhibition at 0.1 µM (0.1 uM) was found to be 32%.

As to `Cc1cccc(NS(=O)(=O)c2ccc(-c3cc(F)c(F)c(F)c3)cc2)n1` [Example 152], the inhibition at 0.1 µM (0.1 uM) is 72.7%. For `COc1ccc(C)nc1NS(=O)(=O)c1ccc(-c2ccc(C)cc2)cc1` [Example 278], for the setting “compound at 0.1 uM”, the inhibition at 0.1 µM was 42.8%. With `COc1ccc(S(=O)(=O)Nc2cccc(C)n2)cc1` [Example 81], the inhibition at 0.1 µM (0.1 uM) came to 23.4%. Still for that read-out and setting: next, `Cc1cccc(NS(=O)(=O)c2ccc(C(C)(C)C)cc2)n1` [Example 52]: 32%; `Cc1cc(C)nc(NS(=O)(=O)c2sc(-c3ccccc3)nc2C)c1` [Example 97]: 31.7%. Same read-out and setting: to `Cc1cc(N)nc(NS(=O)(=O)c2ccc(-c3ccc(C#N)cc3)cc2)c1` [Example 113, 4′-Cyano-biphenyl-4-sulfonic acid (6-amino-4-methyl-pyridin-2-yl)-amide] belongs 100%; to `Cc1ccc(-c2ccc(S(=O)(=O)Nc3cccc(C)n3)cc2)cc1` [Example 124], 84%; to `Cc1cccc(NS(=O)(=O)c2ccc(-c3ccc(C(F)(F)F)cc3)cc2)n1` [Example 157], 100%. Regarding `Cc1c(Cl)cccc1S(=O)(=O)Nc1cccc(CC(=O)N2CCCC2)n1` [Example 17], the inhibition at 0.1 µM (0.1 uM) was found to be 11.4%.
